Results on one compound are retold here after patent US20240376138A1, “Crystal Forms, Preparation Method And Application Of Aryl Phosphine Oxide Compound” (Chengdu Di'Ao Jiuhong Pharmaceutical Factory, priority 2021, published 2024).

The target of data set [1] is T1, BaF3 cells expressing EML-4-ALK-WT (Homo sapiens, UniProt Q9UM73).
T1 construct: fused on or other part: Q9HC35 (Echinoderm microtubule-associated protein-like 4)
The experiment in a line: Cell anti-proliferation experiment 3, BaF3 cells with ALK fusion (CellTiter-Glo). The note with it: 3 days, CTG, read-out: EML-4-ALK-WT IC50. The data set is classed as cell-based. An excerpt: (§1) • 1. […] Test information: • 2.1. Cell information: Cell lines containing ALK mutations in BaF3 were from WuXiAppTec: • Ba/F3-cell lines expressing ALK gene fusion and mutation • Ba/F3-EML-4-ALK-WT • Ba/F3-EML-4-ALK-L 1196M • 2.2.
(§2) Test results: The IC50 values of the compound DA and the control compound against BaF3 cells expressing EML-4-ALK-WT and EML-4-ALK-L1196M are shown in Table 22. • 4.
Background: ATP-based viability assays read luminescence as a measure of living cells.

The target of data set [2] is Ba/F3 cells expressing EGFR-C797S/T790M/L858R (Homo sapiens, UniProt P00533, T790M/C797S/L858R, cells depend on it). The experiment in a line: Cell anti-proliferation experiment 1, BaF3 cells expressing EGFR mutation (CellTiter-Glo). The note with it: read-out: EGFR-C797S/T790M/L858R IC50. The data set is classed as cell-based.
Chain of Ba/F3 cells expressing EGFR-C797S/T790M/L858R (P00533 whole entry T790M/C797S/L858R): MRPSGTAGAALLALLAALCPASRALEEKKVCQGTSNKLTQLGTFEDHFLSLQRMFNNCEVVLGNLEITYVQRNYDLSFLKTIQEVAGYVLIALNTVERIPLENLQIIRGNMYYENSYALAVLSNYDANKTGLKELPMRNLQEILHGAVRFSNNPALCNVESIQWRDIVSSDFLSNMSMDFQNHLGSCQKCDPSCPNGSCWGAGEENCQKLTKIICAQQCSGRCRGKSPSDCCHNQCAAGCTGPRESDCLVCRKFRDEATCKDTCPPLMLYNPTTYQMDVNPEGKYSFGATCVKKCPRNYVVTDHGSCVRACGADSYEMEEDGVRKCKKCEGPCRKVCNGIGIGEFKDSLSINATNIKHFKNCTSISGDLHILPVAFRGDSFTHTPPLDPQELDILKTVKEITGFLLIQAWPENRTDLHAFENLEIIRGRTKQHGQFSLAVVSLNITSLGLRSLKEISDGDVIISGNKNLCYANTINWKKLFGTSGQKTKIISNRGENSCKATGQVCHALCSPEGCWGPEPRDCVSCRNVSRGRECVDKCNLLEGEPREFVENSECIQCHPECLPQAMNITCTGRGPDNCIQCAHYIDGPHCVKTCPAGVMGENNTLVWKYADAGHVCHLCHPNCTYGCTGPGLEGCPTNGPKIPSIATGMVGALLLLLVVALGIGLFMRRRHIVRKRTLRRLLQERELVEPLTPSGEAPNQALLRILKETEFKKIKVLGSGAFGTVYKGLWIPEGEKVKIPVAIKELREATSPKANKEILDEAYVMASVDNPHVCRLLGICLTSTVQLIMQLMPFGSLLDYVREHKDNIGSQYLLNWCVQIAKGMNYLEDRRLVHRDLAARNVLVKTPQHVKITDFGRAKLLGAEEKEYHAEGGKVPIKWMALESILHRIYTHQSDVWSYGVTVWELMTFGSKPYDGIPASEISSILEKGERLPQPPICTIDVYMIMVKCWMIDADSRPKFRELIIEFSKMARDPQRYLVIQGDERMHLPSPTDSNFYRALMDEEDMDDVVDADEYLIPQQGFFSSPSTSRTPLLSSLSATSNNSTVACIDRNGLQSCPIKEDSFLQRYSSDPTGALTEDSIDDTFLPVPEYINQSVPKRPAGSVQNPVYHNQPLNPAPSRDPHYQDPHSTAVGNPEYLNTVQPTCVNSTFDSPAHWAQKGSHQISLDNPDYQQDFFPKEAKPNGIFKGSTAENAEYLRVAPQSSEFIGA
Method: (§6) Test purpose: to detect the effect of the test compounds on the proliferation of cell lines containing EGFR mutations in BaF3 cells • 2. […] Cell information: Cell lines containing EGFR mutations in BaF3 were from WuXiAppTec: • BaF3-cell lines expressing EGFR mutation • EGFR-T790M/Del19 • EGFR-C797S/Del19 • EGFR-T790M/L858R • EGFR-C797S/L858R • EGFR-C797S/T790M/L858R • EGFR-C797S/T790M/Del19 • EGFR-WT wild-type cell lines • 2.2. Test method • Day 0: Cells were seeded in a plate. • a. An ultraviolet lamp of a biological safety cabinet was turned on and countdown was started for 30 minutes. • b. A medium was preheated in a 37° C. water bath. • c. After the ultraviolet irradiation was finished, the biological safety cabinet was opened. The pre-heated medium, PBS, and the like, were wiped with alcohol and placed in the biological safety cabinet. • d. The cells were removed from an incubator, blown to a uniform cell suspension in the biological safety cabinet and counted. • e. Based on the cell counting results, the cell suspension was adjusted to a density of 3,000 cells per well and 50 microliters per well, and seeded in 384-well plates. • f. The cells after seeding were incubated in a 5% CO2 incubator at 37° C. for 3 hours. • g. Compounds were added to the cell plates using Tecan (liquid workstation). • Day 3: the cell plate added with the compounds and CTG (CellTiter-Glo chemiluminescence cell activity assay reagent) were equilibrated at room temperature, 25 μl of CTG was added to each well, centrifuged at 1,000 rpm for 1 minute, and shaken for 1-2 minutes. And centrifuging for 1 minute at 1,000 rpm again, the cell plates were allowed to settle for 10 minutes to detect a signal value in Envision. The IC50 of each compound was calculated by computer fitting with XL-Fit analysis software (the IC50 of the compound on the cell activity inhibition could be obtained by reading the concentrations of the corresponding compounds at 500 inhibition rate). Inhibition rate % C (reading value of the control group without drug−reading value of the sample)/reading value of the control group without drug×100. • 3.
The target in data set [3] is Ba/F3 cells expressing EGFR-C797S/T790M/Del19 (Homo sapiens, UniProt P00533, T790M/C797S, cells depend on it, form not given). The data set is described as above. The class given is cell-based. To be noted: read-out: EGFR-C797S/T790M/Del19 IC50.
The next data set is described as follows: Solubility test. The data set is classed as physicochemical. The note with it: Solution with pH = 6.8, 25° C.±2° C.
The target of data set [4] is Ba/F3 cells expressing EGFR-WT (Homo sapiens, UniProt P00533). The experiment in a line: Cell anti-proliferation experiment 1, BaF3 EGFR-WT wild-type cell line (CellTiter-Glo). The data set is classed as cell-based. The note with it: read-out: EGFR-WT IC50.
Method: as §6
Data set [5] deals with Ba/F3 cells expressing EGFR-C797S/L858R (Homo sapiens, UniProt P00533, C797S/L858R, cells depend on it). Nature of the data set: Cell anti-proliferation experiment 1, BaF3 cells expressing EGFR mutation (CellTiter-Glo). The data set is classed as cell-based. The note with it: 3 days, CTG, read-out: EGFR-C797S/L858R IC50.
Method: (§7) Test purpose: to detect the effect of the test compounds on the proliferation of cell lines containing EGFR mutations in BaF3 cells • 2. Test information: • 2.1. Cell information: Cell lines containing EGFR mutations in BaF3 were from WuXiAppTec: • BaF3-cell lines expressing EGFR mutation • EGFR-T790M/Del19 • EGFR-C797S/Del19 • EGFR-T790M/L858R • EGFR-C797S/L858R • EGFR-C797S/T790M/L858R • EGFR-C797S/T790M/Del19 • EGFR-WT wild-type cell lines • 2.2. Test method • Day 0: Cells were seeded in a plate. • a. An ultraviolet lamp of a biological safety cabinet was turned on and countdown was started for 30 minutes. • b. A medium was preheated in a 37° C. water bath. • c. After the ultraviolet irradiation was finished, the biological safety cabinet was opened. […] The cells were removed from an incubator, blown to a uniform cell suspension in the biological safety cabinet and counted. • e. […] The IC50 of each compound was calculated by computer fitting with XL-Fit analysis software (the IC50 of the compound on the cell activity inhibition could be obtained by reading the concentrations of the corresponding compounds at 500 inhibition rate). Inhibition rate % C (reading value of the control group without drug−reading value of the sample)/reading value of the control group without drug×100. • 3.
The target in data set [6] is Ba/F3 cells expressing EGFR-T790M/Del19 (Homo sapiens, UniProt P00533, T790M, cells depend on it, form not given). The data set is described as above. To be noted: 3 days, CTG, read-out: EGFR-T790M/Del19 IC50. The class given is cell-based.
Data set [7] deals with T2, BaF3 EML-4-ALK-L1196M cell line (Homo sapiens, UniProt Q9UM73, L1196M, cells depend on it).
T2 construct: fused on or other part: Q9HC35 (Echinoderm microtubule-associated protein-like 4)
T2 sequence (Q9UM73 whole entry L1196M, the tested form may be a part): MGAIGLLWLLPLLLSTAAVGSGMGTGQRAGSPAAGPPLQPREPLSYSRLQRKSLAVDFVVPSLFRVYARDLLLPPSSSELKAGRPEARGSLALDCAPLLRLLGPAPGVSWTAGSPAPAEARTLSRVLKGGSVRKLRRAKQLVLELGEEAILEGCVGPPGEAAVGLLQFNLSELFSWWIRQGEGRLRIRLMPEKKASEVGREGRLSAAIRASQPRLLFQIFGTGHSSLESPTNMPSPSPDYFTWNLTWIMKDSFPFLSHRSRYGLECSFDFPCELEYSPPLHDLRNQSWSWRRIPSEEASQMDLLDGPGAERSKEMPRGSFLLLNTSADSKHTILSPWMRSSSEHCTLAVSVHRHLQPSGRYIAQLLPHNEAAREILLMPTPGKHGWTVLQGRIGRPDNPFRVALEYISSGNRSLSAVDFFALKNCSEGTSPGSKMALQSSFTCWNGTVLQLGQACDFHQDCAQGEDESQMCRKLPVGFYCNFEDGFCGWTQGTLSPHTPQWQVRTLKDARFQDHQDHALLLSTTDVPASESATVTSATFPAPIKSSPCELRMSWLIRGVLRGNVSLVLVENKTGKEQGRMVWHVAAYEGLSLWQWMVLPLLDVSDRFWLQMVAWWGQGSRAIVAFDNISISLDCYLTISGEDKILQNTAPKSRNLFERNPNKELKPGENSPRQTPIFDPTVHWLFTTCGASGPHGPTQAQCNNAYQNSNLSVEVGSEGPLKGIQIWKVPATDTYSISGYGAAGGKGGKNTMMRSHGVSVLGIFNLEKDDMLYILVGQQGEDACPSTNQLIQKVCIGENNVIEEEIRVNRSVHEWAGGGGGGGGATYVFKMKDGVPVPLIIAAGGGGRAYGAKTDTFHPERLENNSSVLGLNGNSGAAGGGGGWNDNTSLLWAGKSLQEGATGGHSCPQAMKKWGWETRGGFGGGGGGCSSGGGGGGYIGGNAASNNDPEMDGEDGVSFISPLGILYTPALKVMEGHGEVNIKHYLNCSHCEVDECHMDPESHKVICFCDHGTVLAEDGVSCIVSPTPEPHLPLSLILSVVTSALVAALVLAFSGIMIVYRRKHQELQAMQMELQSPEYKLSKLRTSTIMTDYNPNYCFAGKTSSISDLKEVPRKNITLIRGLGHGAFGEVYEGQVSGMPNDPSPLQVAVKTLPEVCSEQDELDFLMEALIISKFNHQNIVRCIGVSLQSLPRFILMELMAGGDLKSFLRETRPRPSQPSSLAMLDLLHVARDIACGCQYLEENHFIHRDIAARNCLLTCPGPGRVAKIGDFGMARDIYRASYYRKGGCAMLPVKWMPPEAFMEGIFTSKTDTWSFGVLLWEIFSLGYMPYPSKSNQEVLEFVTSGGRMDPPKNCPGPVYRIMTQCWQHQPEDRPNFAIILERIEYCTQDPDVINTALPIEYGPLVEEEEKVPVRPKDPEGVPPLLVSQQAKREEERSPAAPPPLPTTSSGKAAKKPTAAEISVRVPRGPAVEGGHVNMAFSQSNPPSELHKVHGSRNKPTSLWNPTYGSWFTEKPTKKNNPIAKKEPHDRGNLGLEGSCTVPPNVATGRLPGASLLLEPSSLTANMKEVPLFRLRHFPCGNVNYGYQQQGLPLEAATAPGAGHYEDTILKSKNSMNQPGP
The experiment in a line: Cell anti-proliferation experiment 4 (CCK-8). The class given is cell-based. The note with it: BaF3 EML-4-ALK-L1196M cells, 72 hours. Here is the method:
• 1. […] Test materials • BaF3 EML-4-ALK-L1196M cell line, brand: KYinno, article number: KC-0102 • Cell Counting Kit-8 (CCK-8), brand: Targetmol, article number: C0005 • Multifunctional microplate reader, POLARstar Omega, brand: BMG LABTECH • 3. […] 10 μL of the compound diluted in gradient was added to the cell plate to give final concentrations of the compounds as 500, 166.67, 55.56, 18.52, 6.17, 2.06, 0.69, 0.23 and 0.08 nM. • d. […] Test results: The IC50 values of compound DA and compound 1 in the patent application WO2021073498A1 against BaF3 cells expressing EML-4-ALK-L1196M are shown in Table 23.

The test system of data set [8] is PC9 cells expressing EGFR-Del19. The experiment in a line: Cell anti-proliferation experiment 2, PC9 cells (SRB). To be noted: Homo sapiens, PC-9, 72 h, read-out: EGFR-Del 19 GI50. The data set is classed as cell-based. Here is the method: (§3) • 1. […] Test information: • 2.1. Cell information: PC9 cells carried EGFR Del19 mutation, and the rest of mutant cells were constructed from PC9 cells according to the conventional stable cell strain construction method. • PC9-cell lines expressing EGFR mutation • EGFR-Del19 • EGFR-T790M/Del19 • EGFR-C797S/T790M/Del19 • 2.2. Test method:
(§4) The test compounds were diluted by 5 times each time with an appropriate concentration as an initial concentration of the test, and totally diluted into 6 concentration gradients. […] SRB (Sulforhodamine B) detection method was used, and the optical density value of each well was read by a microplate reader at 490 nm wavelength.
(§5) The optical density of the cells at the drug action of 0 was set as a Tz value representing the value of the cells at the time that the drug was added. The optical density value of the cells after the solvent control DMSO acted for 72 hours was set as a C value. The optical density of the cells on which the test compounds acted for 72 hours was set as a Ti value. The response of the cells to the drug was calculated according to a method proposed by the U.S. NIH-NCI (National Institutes of Health-National Institute of Cancer): When Ti is more than or equal to Tz, the value was [(Ti−Tz)/(C−Tz)]×100; and when Ti is less than Tz, the value was [(Ti−Tz)/Tz]×100.

Data set [9] has as its system PC9 cells expressing EGFR-T790M/Del19. Described as above. The class given is cell-based. The note with it: Homo sapiens, PC-9, 72 h, read-out: EGFR-T790M/Del19 GI50. Here is the method: as §3, §4, §5
Data set [10] deals with PC9 cells expressing EGFR-C797S/T790M/Del19. Described as above. The data set is classed as cell-based. To be noted: Homo sapiens, PC-9, 72 h, read-out: EGFR-C797S/T790M/Del19 GI50. The protocol: as §3, §4, §5
Data set [11] in a line: Comparative experiment of hygroscopicity (Chinese Pharmacopoeia 2020). The class given is physicochemical. The text has this:
The description of hygroscopic characteristics and the definition of hygroscopic weight gain are as follows: • Deliquescence: absorbs sufficient amount of water to form a liquid; • Very hygroscopic: the weight gain by hygroscopy is not less than 15%; • Hygroscopic: the weight gain by hygroscopy is less than 15% but not less than 2%; • Slightly hygroscopic: the weight gain by hygroscopy is less than 2% but not less than 0.2%; and
Not or almost not hygroscopic: the weight gain by hygroscopy is less than 0.2% from hygroscopicity.

Data set [12] has as its target T3, BaF3 cells expressing EML-4-ALK-L1196M (Homo sapiens, UniProt Q9UM73, L1196M, cells depend on it).
T3 construct: fused on or other part: Q9HC35 (Echinoderm microtubule-associated protein-like 4)
Nature of the data set: Cell anti-proliferation experiment 3, BaF3 cells with ALK fusion and mutation (CellTiter-Glo). The data set is classed as cell-based. To be noted: 3 days, CTG, read-out: EML-4-ALK-L1196M IC50.
Source text: as §1, §2

Data set [13] concerns the target Ba/F3 cells expressing EGFR-T790M/L858R (Homo sapiens, UniProt P00533, T790M/L858R, cells depend on it). Nature of the data set: Cell anti-proliferation experiment 1, BaF3 cells expressing EGFR mutation (CellTiter-Glo). The class given is cell-based. The note with it: 3 days, CTG, read-out: EGFR-T790M/L858R IC50.
Method: as §7
In data set [14] the target is Ba/F3 cells expressing EGFR-C797S/Del19 (Homo sapiens, UniProt P00533, C797S, cells depend on it, form not given). The data set is described as above. The class given is cell-based. The note with it: 3 days, CTG, read-out: EGFR-C797S-Del19 IC50.

Where two headings read alike, the source gives them in different places.

Chain of Ba/F3 cells expressing EGFR-T790M/L858R (P00533 whole entry T790M/L858R): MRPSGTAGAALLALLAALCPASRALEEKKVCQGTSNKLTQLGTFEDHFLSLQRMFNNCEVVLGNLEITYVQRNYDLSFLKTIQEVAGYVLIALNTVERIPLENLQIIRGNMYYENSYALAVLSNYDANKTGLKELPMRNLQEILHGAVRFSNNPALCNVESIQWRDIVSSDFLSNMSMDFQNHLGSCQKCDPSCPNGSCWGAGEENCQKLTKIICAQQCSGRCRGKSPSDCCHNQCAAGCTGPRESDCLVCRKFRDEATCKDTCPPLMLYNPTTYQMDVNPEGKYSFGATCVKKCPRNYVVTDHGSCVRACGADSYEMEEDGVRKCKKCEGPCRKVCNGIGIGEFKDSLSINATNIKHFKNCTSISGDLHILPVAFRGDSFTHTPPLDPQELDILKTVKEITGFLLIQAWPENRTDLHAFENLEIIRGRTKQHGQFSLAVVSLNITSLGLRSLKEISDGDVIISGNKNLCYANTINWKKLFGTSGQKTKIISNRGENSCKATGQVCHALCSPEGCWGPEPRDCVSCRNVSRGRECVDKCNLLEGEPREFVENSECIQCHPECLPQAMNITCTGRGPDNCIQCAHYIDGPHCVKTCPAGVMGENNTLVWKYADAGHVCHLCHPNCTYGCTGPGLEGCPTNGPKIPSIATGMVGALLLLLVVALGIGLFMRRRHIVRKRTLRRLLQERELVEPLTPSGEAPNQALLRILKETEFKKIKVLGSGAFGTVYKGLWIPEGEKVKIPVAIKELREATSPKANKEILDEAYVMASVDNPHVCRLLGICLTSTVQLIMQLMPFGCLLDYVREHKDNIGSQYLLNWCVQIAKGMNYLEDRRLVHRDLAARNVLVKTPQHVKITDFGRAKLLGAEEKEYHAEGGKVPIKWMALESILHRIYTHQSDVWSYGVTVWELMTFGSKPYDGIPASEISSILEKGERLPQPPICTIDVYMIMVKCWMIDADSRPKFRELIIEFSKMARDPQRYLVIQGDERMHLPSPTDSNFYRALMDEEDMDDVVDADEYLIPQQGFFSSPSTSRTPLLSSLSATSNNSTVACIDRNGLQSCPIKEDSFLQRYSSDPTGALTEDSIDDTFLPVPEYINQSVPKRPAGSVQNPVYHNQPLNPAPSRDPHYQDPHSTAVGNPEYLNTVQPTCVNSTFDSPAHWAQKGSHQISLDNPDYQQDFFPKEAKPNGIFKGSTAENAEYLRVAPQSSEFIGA
T3 sequence (Q9UM73 whole entry L1196M, the tested form may be a part): as the sequence (Q9UM73 whole entry L1196M, the tested form may be a part) above
T1 sequence (Q9UM73 whole entry, change not shown, the tested form may be a part): as the sequence (Q9UM73 whole entry L1196M, the tested form may be a part) above, with M1196L counted along it

For `COc1cc(N2CCC(N3CCN(C)CC3)CC2)c(C)cc1Nc1ncc(Br)c(Nc2ccc(C)cc2P(C)(C)=O)n1` [Compound DA, (2-((5-Bromo-2-((2-methoxy-5-methyl-4-(4-(4-methylpiperazin-1-yl)piperidin-1-yl)phenyl)amino)pyrimidin-4-yl)amino)-5-methylphenyl)dimethylphosphorus oxide], the GI50 in data set [1] was 8 nM; in data set [2] it was 64.1 nM; in [3] it was 16.5 nM; in data set [4] it was 1260 nM; in data set [5], 32.6 nM; in [6], 6.5 nM. For the same compound, the GI50 is 15.1 nM in data set [7] (CCK-8, first test, read-out: IC50 in the first test); 10.4 nM in data set [7] (CCK-8, second test, read-out: IC50 in the second test); 48.4 nM in [8]; 12.8 nM in data set [9]; 15.6 nM in data set [10]; 13.1 nM in data set [12]. For the same compound, the figures for the GI50 in data set [13] and in data set [14] were 22.5 nM and 48.1 nM, respectively. For the same compound, in the data set “Solubility test”, the “Solubility for 24 h” value came to 2110 µg/mL. In data set [11] (class by weight gain after 24 h), the Hygroscopicity result was “Hygroscopic (the weight gain by hygroscopy is less than 15% but not less than 2%)”. Moreover, the “Weight gain % after 24 h” value in data set [11] (hygroscopicity test, 24 h) amounted to 3.78%.
